In patent US12600717B2, “Tricyclic compounds as inhibitors of KRAS” (Incyte Corporation, priority 2021, dated 2026):

Columns and labels:
KRAS G12V = KRAS G12V (Homo sapiens, UniProt P01116, G12V); assay: GDP-GTP exchange assay (bodipy-GDP/GppNHp, SOS1), KRAS G12V; format: biochemical; conditions: bodipy-loaded KRAS G12V 2.5 nM, 3 hours incubation after adding GppNHp-SOS1; read-out: G12V_exchange IC50
Experimental: (§1) The inhibitor potency of the exemplified compounds was determined in a fluorescence based guanine nucleotide exchange assay, which measures the exchange of bodipy-GDP (fluorescently labeled GDP) for GppNHp (Non-hydrolyzable GTP analog) to generate the active state of KRAS in the presence of SOS1 (guanine nucleotide exchange factor). Inhibitors were serially diluted in DMSO and a volume of 0.1 μL was transferred to the wells of a black low volume 384-well plate. 5 μL/well volume of bodipy-loaded KRAS G12D diluted to 2.5 nM in assay buffer (25 mM Hepes pH 7.5, 50 mM NaCl, 10 mM MgCl2 and 0.01% Brij-35) was added to the plate and pre-incubated with inhibitor for 4 hours at ambient temperature. Appropriate controls (enzyme with no inhibitor or with a G12D inhibitor) were included on the plate. The exchange was initiated by the addition of a 5 μL/well volume containing 1 mM GppNHp and 300 nM SOS1 in assay buffer. The 10 μL/well reaction concentration of the bodipy-loaded KRAS G12D, GppNHp, and SOS1 were 2.5 nM, 500 uM, and 150 nM, respectively. The reaction plates were incubated at ambient temperature for 2 hours, a time estimated for complete GDP-GTP exchange in the absence of inhibitor. For the KRAS G12V mutant, similar guanine nucleotide exchange assays were used with 2.5 nM as final concentration for the bodipy loaded KRAS proteins and 3 hours incubation after adding GppNHp-SOS1 mixture. A cyclic peptide described to selectively bind G12D mutant (Sakamoto et al., BBRC 484.3 (2017), 605-611) or internal compounds with confirmed binding were used as positive controls in the assay plates. Fluorescence intensities were measured on a PheraStar plate reader instrument (BMG Labtech) with excitation at 485 nm and emission at 520 nm.
(§2) Either GraphPad prism or Genedata Screener SmartFit was used to analyze the data. The IC50 values were derived by fitting the data to a four parameter logistic equation producing a sigmoidal dose-response curve with a variable Hill coefficient.
(§3) The symbol “†” indicates IC50≤100 nM, “††” indicates IC50>100 nM but ≤1 μM; and “†††” indicates IC50 is >1 μM but ≤5 μM, “††††” indicates IC50 is >5 μM but ≤10 μM. “NA” indicates IC50 not available.

KRAS G12D = KRAS G12D (Homo sapiens, UniProt P01116, G12D); assay: GDP-GTP exchange assay (bodipy-GDP/GppNHp, SOS1), KRAS G12D; format: biochemical; conditions: bodipy-loaded KRAS G12D 2.5 nM, 4 hours pre-incubation with inhibitor, 2 hours after GppNHp/SOS1; read-out: G12D_exchange IC50
KRAS G12D, sequence (P01116 1-188 isoform P01116-2 G12D): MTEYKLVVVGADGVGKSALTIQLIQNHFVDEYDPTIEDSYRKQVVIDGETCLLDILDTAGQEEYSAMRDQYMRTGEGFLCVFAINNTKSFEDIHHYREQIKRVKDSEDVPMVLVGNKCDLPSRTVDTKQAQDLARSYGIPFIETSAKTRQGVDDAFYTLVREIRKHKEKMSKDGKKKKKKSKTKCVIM
Experimental: as §1, §2, §3

KRAS G12V, sequence (P01116 1-188 isoform P01116-2 G12V): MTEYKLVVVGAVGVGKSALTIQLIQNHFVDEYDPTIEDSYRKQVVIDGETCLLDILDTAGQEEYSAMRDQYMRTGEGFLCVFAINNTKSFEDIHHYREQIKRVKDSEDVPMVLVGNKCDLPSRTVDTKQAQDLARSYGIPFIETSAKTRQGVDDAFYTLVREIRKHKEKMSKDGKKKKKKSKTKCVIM

Structure (SMILES) | IC50 (KRAS G12V) [µM] | IC50 (KRAS G12D) [µM]
CCc1nc2c(OCC34CCCN3CC(F)C4)nc3c(F)c(-c4c[nH]c5ccc(F)cc45)c(CCC#N)cc3c2n1C1C2CNC1C2 (mixture of isomers) [Example 30, 3-(1-((endo)-2-azabicyclo[2.1.1]hexan-5-yl)-2-ethyl-6-fluoro-7-(5-fluoro-1H-indol-3-yl)-4-(((2R,7aS)-2-fluorotetrahydro-1H-pyrrolizin-7a(5H)-yl)methoxy)-1H-imidazo[4,5-c]quinolin-8-yl)propanenitrile] | 0.1 to 1 | ≤ 0.1
CN(C)C(=O)CCc1nc2c(N3CC(N(C)C)C3)nc3c(F)c(-c4cc(O)cc5ccccc45)c(Cn4cccn4)cc3c2n1[C@@H]1[C@@H]2CN[C@H]1C2 (relative stereo) [Example 9, 3-(8-((1H-pyrazol-1-yl)methyl)-1-((endo)-2-azabicyclo[2.1.1]hexan-5-yl)-4-(3-(dimethylamino)azetidin-1-yl)-6-fluoro-7-(3-hydroxynaphthalen-1-yl)-1H-imidazo[4,5-c]quinolin-2-yl)-N,N-dimethylpropanamide] | ≤ 0.1 | ≤ 0.1
CN(C)C(=O)CCc1nc2c(N3CC(N(C)C)C3)nc3c(-c4cccc(C#N)c4)c(-c4cc(O)cc5ccccc45)c(CCC#N)cc3c2n1[C@@H]1[C@@H]2CN[C@H]1C2 (relative stereo) [Example 12, 3-(1-((endo)-2-azabicyclo[2.1.1]hexan-5-yl)-8-(2-cyanoethyl)-6-(3-cyanophenyl)-4-(3-(dimethylamino)azetidin-1-yl)-7-(3-hydroxynaphthalen-1-yl)-1H-imidazo[4,5-c]quinolin-2-yl)-N,N-dimethylpropanamide] | 5 to 10 | 0.1 to 1
CN(C)C(=O)CCc1nc2c(N3CC(N(C)C)C3)nc3c(OCc4ccccc4)c(-c4cccc5ccc(F)cc45)c(CCC#N)cc3c2n1[C@@H]1[C@@H]2CN[C@H]1C2 (relative stereo) [Example 14, 3-(6-(benzyloxy)-1-((endo)-2-azabicyclo[2.1.1]hexan-5-yl)-8-(2-cyanoethyl)-4-(3-(dimethylamino)azetidin-1-yl)-7-(7-fluoronaphthalen-1-yl)-1H-imidazo[4,5-c]quinolin-2-yl)-N,N-dimethylpropanamide] | 5 to 10 | 0.1 to 1
CN(C)C(=O)CCc1nc2c(N3CC(N(C)C)C3)nc3c(F)c(-c4cc(O)cc5ccccc45)cc(CO)c3c2n1[C@@H]1[C@@H]2CN[C@H]1C2 (relative stereo) [Example 15, 3-(1-((endo)2-azabicyclo[2.1.1]hexan-5-yl)-4-(3-(dimethylamino)azetidin-1-yl)-6-fluoro-9-(hydroxymethyl)-7-(3-hydroxynaphthalen-1-yl)-1H-imidazo[4,5-c]quinolin-2-yl)-N,N-dimethylpropanamide] | 1 to 5 | ≤ 0.1
CNCCc1nc2c(N3CC(N(C)C)C3)nc3c(F)c(-c4cc(O)cc5ccccc45)c(Cc4ccc(C#N)cc4)cc3c2n1[C@@H]1[C@@H]2CN[C@H]1C2 (relative stereo) [Example 29, 4-((1-((endo)-2-azabicyclo[2.1.1]hexan-5-yl)-4-(3-(dimethylamino)azetidin-1-yl)-6-fluoro-7-(3-hydroxynaphthalen-1-yl)-2-(2-(methylamino)ethyl)-1H-imidazo[4,5-c]quinolin-8-yl)methyl)benzonitrile] | 5 to 10 | 0.1 to 1
CC(=O)N1CCCC(c2nc3c(N4CC(N(C)C)C4)nc4c(F)c(-c5cc(O)cc6ccccc56)c(C)cc4c3n2C2C3CNC2C3)C1 (single isomer, unassigned) [Example 1a, 1-(3-(1-((endo)-2-azabicyclo[2.1.1]hexan-5-yl)-4-(3-(dimethylamino)azetidin-1-yl)-6-fluoro-7-(3-hydroxynaphthalen-1-yl)-8-methyl-1H-imidazo[4,5-c]quinolin-2-yl)piperidin-1-yl)ethan-1-one] | – | 0.1 to 1
